Earlier results as cited in US11839662B2, “Compositions for neuromodulation of mosquito feeding behavior and uses thereof” (University of Central Florida Research Foundation, Inc., priority 2017, dated 2023).

Compound	effect on oviposition and larval hatch rate (Anopheles gambiae)	repellant and larvicidal effect (mosquitoes)
Clc1cccc(Cl)c1N=C1NCCN1 [Clonidine]	decrease oviposition and larval hatch rate	
CC1(C)CCC[C@]2(C)[C@@H](C=O)C(C=O)=CC[C@@H]12 [Polygodial]		repellant ability in mosquitoes and act as a larvacide
